Results from US11655244B2, “Carbazole compounds and methods of use thereof” (GSNO Therapeutics, Inc, priority 2017, dated 2023).
Where two headings read alike, the source gives them in different places.

Columns and labels:
GSNOR enzyme [1] = target: T1, GSNOR enzyme (Homo sapiens, UniProt P11766); assay: GSNOR inhibition assay (rate of NADH consumption, 340 nm absorbance); assay type: biochemical; conditions: Table 2b; read-out: IC50 Micromolar
GSNOR enzyme [2] = target: T1, GSNOR enzyme; assay: as above; assay type: biochemical
Experimental: The following compounds were also prepared based on the methods described herein, using the appropriate starting materials. Table 2a and Table 2b also provides the % GSNOR inhibition at 20 μM of compounds described herein. […] The buffer was 100 mM phosphate buffer (pH 7.4.) The rate of NADH consumption for each well was determined by ultraviolet spectroscopy. Plates were read on a Molecular Devices Spectra Max UV/Visible Spectrophotometer/plate reader and the change in 340 nm absorbance at 25° C. was recorded for each well at 10 sec intervals over the duration of the recording period (2˜5 minutes). The rate was measured from the linear portion of the curve. Final test compound concentration was 20 μM. The mean % inhibition from 3 test compound wells and 5 control wells was measured as the percentage of the mean no compound+enzyme−the mean no enzyme, no compound control.

[3] = test system: non-alcoholic steatohepatitis (NASH) in male C57BL/6 mice; assay: Non-alcoholic steatohepatitis (NASH) model, Streptozotocin plus 60% kcal fat diet; assay type: in vivo; conditions: for liver to body weight ratio: disease control 0.066; for decrease of percentage collagen proportion area (CPA), Masson's trichrome staining, liver: vs disease control
Experimental: Timed pregnant mice (n=44) were selected for the study. The delivered pups were subcutaneously injected on post-natal day 2 with 200 μg of Streptozotocin and were allowed to remain with the mother until they reached the weanling age. After weanling, the male pups were selected and fed with 60% kcal fat diet (Research Diet-D12492) for next 6 weeks. All the animals were observed once daily for clinical signs and twice daily for morbidity and mortality.
Mice were dosed with vehicle, Compound 17 (at 3 mg/kg or 10 mg/kg) and 10 mg/kg of reference compound (either Obeticholic acid (OCA) or Elafibranor (ELA, GFT505)) once daily before the start of dark cycle (6:00 PM) from day 0 to 21. Animal body weight measurements were made daily for the complete duration of the experiment. Animals were dosed for 21 days (from week 9 to 12) with the test and reference compounds. Blood glucose was estimated before the treatment start, day 11 and on the termination day. Histopathology analysis including the H&E staining, Masson's trichrome staining and the Oil-red-O (ORO) staining was performed for the liver tissues.

[4] = Table 2a, test compound 20 μM, pH 7.4, 25° C., read-out: % Inhibit. at 20 μM
[5] = Table 2b, test compound 20 uM, read-out: % GSNOR Inhibition at 20 uM

T1 sequence (P11766 whole entry): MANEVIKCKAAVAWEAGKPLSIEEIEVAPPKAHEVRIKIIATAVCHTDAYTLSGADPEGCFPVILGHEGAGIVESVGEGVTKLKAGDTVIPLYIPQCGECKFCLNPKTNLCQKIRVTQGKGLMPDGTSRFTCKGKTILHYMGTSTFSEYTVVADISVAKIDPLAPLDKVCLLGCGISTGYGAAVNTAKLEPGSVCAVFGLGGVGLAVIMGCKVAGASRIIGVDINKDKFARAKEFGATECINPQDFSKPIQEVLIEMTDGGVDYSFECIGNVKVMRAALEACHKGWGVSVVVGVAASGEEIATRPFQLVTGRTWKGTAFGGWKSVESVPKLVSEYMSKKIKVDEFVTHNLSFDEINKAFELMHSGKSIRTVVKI

SMILES: NC(=O)c1ccc(-n2c3cc(Cn4ccnc4)ccc3c3ccc(C(=O)O)cc32)c([N+](=O)[O-])c1 [Compound 16, 9-(4-aminocarbonyl-2-nitrophenyl)-7-[(1H-imidazol-1-yl)methyl]-9H-carbazole-2-carboxylic acid]
- IC50 (GSNOR enzyme [1]): 1 to 5 µM
- inhibition at 20 µM (GSNOR enzyme [2]; [4]): 89%
- inhibition at 20 µM (GSNOR enzyme [2]; [5]): 89%

SMILES: N#Cc1ccc(-n2c3cc(CNc4nccs4)ccc3c3ccc(C(=O)O)cc32)c([N+](=O)[O-])c1 [Compound G1, 9-(4-cyano-2-nitrophenyl)-7-((thiazol-2-ylamino)methyl)-9H-carbazole-2-carboxylic acid]
- inhibition at 20 µM (GSNOR enzyme [2]; [4]): 15%

SMILES: COc1ccc(-n2c3ccc(-n4ccnc4)cc3c3ccc(CCC(=O)O)cc32)cc1 [Compound 24]
- inhibition at 20 µM (GSNOR enzyme [2]; [5]): 90%

SMILES: N#Cc1ccc(-n2c3cc(CNc4ncco4)ccc3c3ccc(C(=O)O)cc32)c([N+](=O)[O-])c1 [Compound H1, 9-(4-cyano-2-nitrophenyl)-7-((oxazol-2-ylamino)methyl)-9H-carbazole-2-carboxylic acid]
- inhibition at 20 µM (GSNOR enzyme [2]; [4]): 0%

SMILES: NC(=O)c1ccc(-n2c3cc(CNc4ncco4)ccc3c3ccc(C(=O)O)cc32)c([N+](=O)[O-])c1 [Compound I1, 9-(4-carbamoyl-2-nitrophenyl)-7-((oxazol-2-ylamino)methyl)-9H-carbazole-2-carboxylic acid]
- inhibition at 20 µM (GSNOR enzyme [2]; [4]): 0%

SMILES: NC(=O)c1ccc(-n2c3cc(CNc4nccs4)ccc3c3ccc(C(=O)O)cc32)c([N+](=O)[O-])c1 [Compound J1, 9-(4-carbamoyl-2-nitrophenyl)-7-((thiazol-2-ylamino)methyl)-9H-carbazole-2-carboxylic acid]
- inhibition at 20 µM (GSNOR enzyme [2]; [4]): 9%

SMILES: O=C(O)CCc1ccc2c3cc(-n4ccnc4)ccc3n(-c3ccc(O)cc3)c2c1 [Compound 23]
- inhibition at 20 µM (GSNOR enzyme [2]; [5]): 93.4%

SMILES: COc1ccc(-n2c3ccc(-n4ccnc4)cc3c3ccc(CCC(=O)O)cc32)c(C)c1 [Compound 25]
- inhibition at 20 µM (GSNOR enzyme [2]; [5]): 92%

SMILES: CSc1ccc(C(=O)/C=C/c2cc(C)c(OC(C)(C)C(=O)O)c(C)c2)cc1 [Elafibranor, reference compound]
- NAS ([3]; 10 mg/kg): 2.67
- ORO (Oil-Red-O) steatosis score relative to disease control ([3]; 10 mg/kg): −11%
- change of liver to body weight ratio compared with disease control ([3]; 10 mg/kg): +40%
- plasma glucose relative to disease control (in words) ([3]; 10 mg/kg once daily): neither OCA nor ELA reduced glucose
- body weight, statistical significance ([3]; 10 mg/kg, day 7 and 12 post-treatment): statistically significant (*p<0.05) increase in body weight
- weight put on relative to naïve controls at day 21 ([3]; 10 mg/kg): +43%
- liver to body weight ratio ([3]; 10 mg/kg): 0.092
- decrease of percentage collagen proportion area (CPA), Masson's trichrome staining, liver ([3]; 10 mg/kg): 54%
- change in body weight (g), Mean ([3]; Day 1, 10 mg/kg once daily): 0.00 g
- change in body weight (g), Mean ([3]; Day 2, 10 mg/kg once daily): 0.70 g
- change in body weight (g), Mean ([3]; Day 3, 10 mg/kg once daily): 1.18 g
- change in body weight (g), Mean ([3]; Day 4, 10 mg/kg once daily): 0.93 g
- change in body weight (g), Mean ([3]; Day 5, 10 mg/kg once daily): 1.42 g
- change in body weight (g), Mean ([3]; Day 6, 10 mg/kg once daily): 1.31 g
- change in body weight (g), Mean ([3]; Day 7, 10 mg/kg once daily): 1.43 g
- change in body weight (g), Mean ([3]; Day 8, 10 mg/kg once daily): 1.49 g
- change in body weight (g), Mean ([3]; Day 9, 10 mg/kg once daily): 1.71 g
- change in body weight (g), Mean ([3]; Day 10, 10 mg/kg once daily): 1.69 g
- change in body weight (g), Mean ([3]; Day 11, 10 mg/kg once daily): 1.47 g
- change in body weight (g), Mean ([3]; Day 12, 10 mg/kg once daily): -0.17 g
- change in body weight (g), Mean ([3]; Day 13, 10 mg/kg once daily): 1.73 g
- change in body weight (g), Mean ([3]; Day 14, 10 mg/kg once daily): 1.96 g
- change in body weight (g), Mean ([3]; Day 15, 10 mg/kg once daily): 2.00 g
- change in body weight (g), Mean ([3]; Day 16, 10 mg/kg once daily): 1.64 g
- change in body weight (g), Mean ([3]; Day 17, 10 mg/kg once daily): 1.82 g
- change in body weight (g), Mean ([3]; Day 18, 10 mg/kg once daily): 2.16 g
- change in body weight (g), Mean ([3]; Day 19, 10 mg/kg once daily): 2.26 g
- change in body weight (g), Mean ([3]; Day 20, 10 mg/kg once daily): 1.88 g
- change in body weight (g), Mean ([3]; Day 21, 10 mg/kg once daily): 2.22 g

SMILES: NC(=O)CCn1c2ccc(-n3ccnc3)cc2c2cc(F)c(C(=O)O)cc21 [Compound E1, 9-(3-amino-3-oxopropyl)-3-fluoro-6-(1H-imidazol-1-yl)-9H-carbazole-2-carboxylic acid]
- inhibition at 20 µM (GSNOR enzyme [2]; [4]): 18%

SMILES: NC(=O)CCn1c2cc(Cn3ccnc3)ccc2c2ccc(C(=O)O)cc21 [Compound 8, 9-(3-amino-3-oxopropyl)-7-[(1H-imidazol-1-yl)methyl]-9H-carbazole-2-carboxylic acid]
- IC50 (GSNOR enzyme [1]): 1 to 5 µM
- inhibition at 20 µM (GSNOR enzyme [2]; [4]): 80%
- inhibition at 20 µM (GSNOR enzyme [2]; [5]): 80%

SMILES: CC[C@H]1[C@@H](O)[C@@H]2[C@H](CC[C@]3(C)[C@@H]([C@H](C)CCC(=O)O)CC[C@@H]23)[C@@]2(C)CC[C@@H](O)C[C@@H]12 [Obeticholic acid, reference compound]
- NAS ([3]; 10 mg/kg): 3.20
- ORO (Oil-Red-O) steatosis score relative to disease control ([3]; 10 mg/kg): −1%
- change of liver to body weight ratio compared with disease control ([3]; 10 mg/kg): −11%
- weight put on relative to naïve controls at day 21 ([3]; 10 mg/kg): +28%
- liver to body weight ratio ([3]; 10 mg/kg): 0.058
- decrease of percentage collagen proportion area (CPA), Masson's trichrome staining, liver ([3]; 10 mg/kg): 50%
- change in body weight (g), Mean ([3]; Day 1, 10 mg/kg once daily): 0.00 g
- change in body weight (g), Mean ([3]; Day 2, 10 mg/kg once daily): 0.43 g
- change in body weight (g), Mean ([3]; Day 3, 10 mg/kg once daily): 0.57 g
- change in body weight (g), Mean ([3]; Day 4, 10 mg/kg once daily): 0.43 g
- change in body weight (g), Mean ([3]; Day 5, 10 mg/kg once daily): 0.45 g
- change in body weight (g), Mean ([3]; Day 6, 10 mg/kg once daily): 0.78 g
- change in body weight (g), Mean ([3]; Day 7, 10 mg/kg once daily): 0.58 g
- change in body weight (g), Mean ([3]; Day 8, 10 mg/kg once daily): 0.89 g
- change in body weight (g), Mean ([3]; Day 9, 10 mg/kg once daily): 0.85 g
- change in body weight (g), Mean ([3]; Day 10, 10 mg/kg once daily): 1.06 g
- change in body weight (g), Mean ([3]; Day 11, 10 mg/kg once daily): 0.78 g
- change in body weight (g), Mean ([3]; Day 12, 10 mg/kg once daily): 0.06 g
- change in body weight (g), Mean ([3]; Day 13, 10 mg/kg once daily): 0.82 g
- change in body weight (g), Mean ([3]; Day 14, 10 mg/kg once daily): 1.05 g
- change in body weight (g), Mean ([3]; Day 15, 10 mg/kg once daily): 0.54 g
- change in body weight (g), Mean ([3]; Day 16, 10 mg/kg once daily): 0.82 g
- change in body weight (g), Mean ([3]; Day 17, 10 mg/kg once daily): 1.43 g
- change in body weight (g), Mean ([3]; Day 18, 10 mg/kg once daily): 1.52 g
- change in body weight (g), Mean ([3]; Day 19, 10 mg/kg once daily): 1.81 g
- change in body weight (g), Mean ([3]; Day 20, 10 mg/kg once daily): 1.62 g
- change in body weight (g), Mean ([3]; Day 21, 10 mg/kg once daily): 1.98 g

SMILES: N#Cc1ccc(-n2c3ccc(-n4ccnc4)cc3c3ccc(CCC(=O)O)cc32)cc1 [Compound 18]
- IC50 (GSNOR enzyme [1]): > 5 µM
- inhibition at 20 µM (GSNOR enzyme [2]; [5]): 72.4%

SMILES: O=C(O)CCc1ccc2c3cc(-n4ccnc4)ccc3n(-c3ccc(Cl)cc3)c2c1 [Compound 22]
- inhibition at 20 µM (GSNOR enzyme [2]; [5]): 81.4%

SMILES: Cc1cc(C#N)ccc1-n1c2ccc(-n3ccnc3)cc2c2ccc(CCC(=O)O)cc21 [Compound 19]
- IC50 (GSNOR enzyme [1]): 1 to 5 µM
- inhibition at 20 µM (GSNOR enzyme [2]; [5]): 81.3%
